# Assay: Tg of HDC formulations with incorporated active
# Format: physicochemical
# Details: hydrophilic active (diltiazem hydrochloride) incorporated
# Source text: The model hydrophilic drug, diltiazem hydrochloride (“hydrophilic active”), was incorporated (10% loading) into solid vehicles of the single straight chain HDC trehalose octaacetate or the branched chain HDCs trehalose octa-3,3, dimethylbutyrate and trehalose octapivalate as well as composite formulations (1:1 ratio) of the two branched-chain HDCs or the straight chain HDC trehalose octaacetate and the branched chain HDC trehalose octapivalate, by quenching from the melt. Release of the active from the HDC solid dose delivery vehicle was assessed using an in vitro USP (volume 23) type 2 dissolution test in saline containing 0.1% sodium cholate as the dissolution medium.
# The model hydrophilic drug diltiazem hydrochloride was also incorporated (5% loading) into solid vehicles of the single branched chain HDCs trehalose diisobutyrate hexaacetate and trehalose octapivalate and composite formulations (1:1 ratio) of the two branched-chain HDCs by solvent removal by rotary evaporation, in a Buchi Rotavapor R-124, of a 20% solution of active plus HDCs in a dichloromethane: acetone mixed solvent (9:1 ratio) system. […] (trehalose octapivalate) of the single branched-chain HDC formulations of active.
# The model hydrophobic steroid fluticasone propionate (“hydrophobic active”) was incorporated (5% loading) into solid vehicles of the single straight chain HDC trehalose octaacetate or the branched chain HDCs trehalose octa-3,3, dimethylbutyrate and trehalose dipropanoate hexaacetate and composite formulations (1:1 ratio) of the two branched-chain HDCs by either quenching from the melt or solvent evaporation by rotary evaporation. Melt incorporation was carried out by melting the HDCs at 150-170° C. and dissolving the active in the melt at 120-140° C. Rotary evaporation was carried out using a Buchi Rotavapor R-124 using a 20% solution of active plus HDCs in a dichloromethane: acetone mixed solvent (9:1 ratio) system. The hydrophobic active was also incorporated into solid vehicles of the branched chain HDCs, trehalose octapivalate, trehalose diisobutyrate hexaacetate and lactose isobutyrate heptaacetate, either by quenching from the melt or solvent evaporation by rotary evaporation. Release of hydrophobic active from the HDC solid dose delivery vehicle was assessed using an in vitro USP (volume 23) type 2 dissolution test in saline containing 0.1% sodium cholate as the dissolution medium.
# As an example of a polypeptide drug, the polypeptide hormone insulin (“polypeptide active”) was incorporated (10% loading) into solid vehicles of the single branched chain HDCs trehalose diisobutyrate hexaacetate and trehalose hexapivalate and composite formulations of the branched chain HDCs trehalose diisobutyrate hexaacetate and trehalose octapivalate (8:1 ratio) by solvent removal by lyophilization of a 20% solution of insulin plus HDCs in dimethylsulfoxide. […] Release of active from the HDC solid dose delivery vehicle was assessed using an in vitro USP (volume 23) type 2 dissolution test in saline containing 0.1% sodium cholate as the dissolution medium.
row,Molecule,Tg (° C.) with active incorporated
1,Trehalose diisobutyrate hexaacetate,46.5 °C

# Same assay, conditions: hydrophobic active (fluticasone propionate, 5% loading) incorporated
row,Molecule,Tg (° C.) with active incorporated
1,Trehalose diisobutyrate hexaacetate,50 °C

# Same assay, conditions: polypeptide active (insulin, 10% loading) incorporated by lyophilization from dimethylsulfoxide
row,Molecule,Tg (° C.) with active incorporated
1,Trehalose diisobutyrate hexaacetate,50.1 °C

# Assay: Glass transition temperature (Tg) of derivatized carbohydrates, by DSC
# Format: physicochemical
# Details: derivatized carbohydrate alone, Tables 1-4
# Source text: The reaction product can be characterized structurally by methods known in the art, including, but not limited to, nuclear magnetic resonance spectroscopy (NMR) and its material science properties characterized by differential scanning calorimetry (DSC). The characteristic melting points and Tgs (glass transition temperatures) for the derivatized carbohydrates can also be determined by DSC and other methods known in the art.
# The carbohydrate derivatives were routinely synthesized by standard esterification of the carbohydrate with the chloride of the desired hydrocarbon side chain under anhydrous conditions and the resulting derivatives purified by standard techniques of solvent extraction and re-crystallization. For example, trehalose octa-3,3-dimethylbutyrate was synthesized by reacting 3,3,-dimethylbutyroyl chloride with trehalose in anhydrous pyridine, followed by extraction with ether, hydrochloric acid, potassium carbonate solution and water and finally re-crystallized twice from alcohol to yield colorless, needle-like crystals (˜80% yield) of m.pt 138-140° C., αD 112°. Trehalose hexa-3,3-dimethylbutyrate (THEX) can be prepared by protecting the 6,6′-hydroxy group of trehalose with a bulky group such as trityl or t-butyldiphenylsilyl, for example by heating trehalose and trityl chloride in pyridine. The 6,6′-ditrityltrehalose can be acylated with 3,3-dimethylbutyroyl chloride in pyridine to give 6,6′-ditritylhexa-3,3-dimethylbutyryltrehalose. The trityl group can be removed by strong acid, for example hydrogen bromide in acetic acid, to give THEX. TACT can be prepared by acylating THEX with acetic anhydride in pyridine. Suitable work-up yields the HDC in crystalline form. The physical characteristics, melting points and glass transition temperatures (Tg, ° C.) of selected carbohydrate derivatives are shown in Tables 1-5.
row,Molecule,Tg(° C.)
1,"CCC(CC)C(=O)OC[C@H]1O[C@H](O[C@H]2O[C@H](COC(=O)C(CC)CC)[C@@H](OC(C)=O)[C@H](OC(C)=O)[C@H]2OC(C)=O)[C@H](OC(C)=O)[C@@H](OC(C)=O)[C@@H]1OC(C)=O [Trehalose 6,6′-di-(2-ethylbutyrate) hexaacetate]",30 °C
2,"CCCCC(=O)OCC1OC(OC2OC(COC(=O)CCCC)C(OC(=O)CCCC)C(OC(=O)CCCC)C2OC(=O)CCCC)C(OC(=O)CCCC)C(OC(=O)CCCC)C1OC(=O)CCCC (stereo not drawn) [Trehalose octavalerate, reference compound]",syrup
3,"CC(=O)OC[C@H]1O[C@@H](O[C@H]2[C@H](OC(C)=O)[C@@H](OC(C)=O)[C@H](OC(C)=O)O[C@@H]2COC(C)=O)[C@H](OC(C)=O)[C@@H](OC(C)=O)[C@H]1OC(C)=O [β-Lactose octaacetate, reference compound]",63 °C
4,Trehalose heptapivalate,73 °C
5,Trehalose tetrapivalate,96 °C
6,CO[C@@H]1O[C@H](COC(C)=O)[C@@H](O[C@@H]2O[C@H](COC(C)=O)[C@@H](OC(C)=O)[C@H](OC(C)=O)[C@H]2OC(C)=O)[C@H](OC(C)=O)[C@H]1OC(C)=O [β-Cellobiose methyl heptaacetate],77 °C
7,"CC(=O)OC[C@H]1O[C@@H](O[C@H]2[C@H](OC(C)=O)[C@@H](OC(C)=O)C(OC(C)=O)O[C@@H]2COC(C)=O)[C@H](OC(C)=O)[C@@H](OC(C)=O)[C@H]1OC(C)=O (stereo partly drawn) [α, β-Lactose octaacetate, reference compound]",67 °C
8,"CCC(C)(C)C(=O)OC[C@H]1O[C@H](O[C@H]2O[C@H](COC(=O)C(C)(C)CC)[C@@H](OC(C)=O)[C@H](OC(C)=O)[C@H]2OC(C)=O)[C@H](OC(C)=O)[C@@H](OC(C)=O)[C@@H]1OC(C)=O [Trehalose 6,6′di-(2,2-dimethylbutyrate) hexaacetate]",47 °C
9,CC(C)C(=O)OCC1O[C@H](OCC2O[C@@H](O[C@]3(COC(=O)C(C)C)O[C@H](COC(=O)C(C)C)[C@@H](OC(=O)C(C)C)[C@H]3OC(=O)C(C)C)C(OC(=O)C(C)C)[C@@H](OC(=O)C(C)C)[C@@H]2OC(=O)C(C)C)C(OC(=O)C(C)C)[C@@H](OC(=O)C(C)C)[C@H]1OC(=O)C(C)C (stereo partly drawn) [Raffinose undeca-isobutyrate],15 °C
10,"CCC(=O)OC1C(COC(C)=O)OC(OC2OC(COC(C)=O)C(OC(=O)CC)C(OC(C)=O)C2OC(C)=O)C(OC(C)=O)C1OC(C)=O (stereo not drawn) [Trehalose 4,4′-dipropionate hexaactetate]",42 °C
11,CC(C)C(=O)OCC1O[C@@H](O[C@H]2OC(COC(=O)C(C)C)[C@@H](OC(=O)C(C)C)[C@H](OC(=O)C(C)C)C2OC(=O)C(C)C)C(OC(=O)C(C)C)C(OC(=O)C(C)C)[C@H]1OC(=O)C(C)C (stereo partly drawn) [Trehalose octaisobutyrate],7 °C
12,"CCC(=O)OC[C@H]1O[C@@H](O[C@H]2[C@H](OC(=O)CC)[C@@H](OC(=O)CC)[C@H](OC(=O)CC)O[C@@H]2COC(=O)CC)[C@H](OC(=O)CC)[C@@H](OC(=O)CC)[C@@H]1OC(=O)CC [β-Cellobiose octapropionate, reference compound]",15 °C
13,Trehalose pentapivalate,81 °C
14,"CC(=O)O[C@@H]1[C@@H](OC(C)=O)[C@@H](O[C@H]2O[C@H](COC(=O)CC(C)(C)C)[C@@H](OC(C)=O)[C@H](OC(C)=O)[C@H]2OC(C)=O)O[C@H](COC(=O)CC(C)(C)C)[C@H]1OC(C)=O [Trehalose 6,6′-di-(3,3-dimethylbutyrate) hexaacetate]",50 °C
15,"CC(=O)O[C@@H]1[C@@H](OC(=O)CC(C)(C)C)[C@@H](OC(=O)CC(C)(C)C)O[C@H](COC(=O)CC(C)(C)C)[C@H]1O[C@@H]1O[C@H](COC(=O)CC(C)(C)C)[C@H](OC(=O)CC(C)(C)C)[C@H](OC(=O)CC(C)(C)C)[C@H]1OC(=O)CC(C)(C)C [α-Lactose 3-acetyl-hepta-3,3-dimethylbutyrate]",48 °C
16,CC(=O)OC[C@H]1O[C@@H](O[C@H]2[C@H](OC(C)=O)[C@@H](OC(C)=O)[C@H](OC(=O)C(C)C)O[C@@H]2COC(C)=O)[C@H](OC(C)=O)[C@@H](OC(C)=O)[C@H]1OC(C)=O [β-Lactose isobutyrate heptaacetate],60 °C
17,"CC(=O)OC1C(COC(=O)C(C)C)OC(OC2OC(COC(=O)C(C)C)C(OC(C)=O)C(OC(C)=O)C2OC(C)=O)C(OC(C)=O)C1OC(C)=O (stereo not drawn) [Trehalose 6,6′-diisobutyrate hexaacetate]",42 °C
18,"CC(C)(C)CC(=O)OC[C@H]1O[C@@H](O[C@H]2[C@H](OC(=O)CC(C)(C)C)[C@@H](OC(=O)CC(C)(C)C)[C@@H](OC(=O)CC(C)(C)C)O[C@@H]2COC(=O)CC(C)(C)C)[C@H](OC(=O)CC(C)(C)C)[C@@H](OC(=O)CC(C)(C)C)[C@H]1OC(=O)CC(C)(C)C [α-Lactose octa-3,3-dimethyl-butyrate]",53 °C
19,CC(C)(C)C(=O)OC[C@H]1O[C@@H](O[C@H]2[C@H](OC(=O)C(C)(C)C)[C@@H](OC(=O)C(C)(C)C)[C@H](OC(=O)C(C)(C)C)O[C@@H]2COC(=O)C(C)(C)C)[C@H](OC(=O)C(C)(C)C)[C@@H](OC(=O)C(C)(C)C)[C@H]1OC(=O)C(C)(C)C [β-Lactose octapivalate],88 °C
20,"CC(=O)OC1C(COC(=O)C(C)(C)C)OC(OC2OC(COC(=O)C(C)(C)C)C(OC(C)=O)C(OC(C)=O)C2OC(C)=O)C(OC(C)=O)C1OC(C)=O (stereo not drawn) [Trehalose 6,6′ dipivalate hexaacetate]",56 °C
21,CCO[C@@H]1O[C@H](COC(C)=O)[C@@H](O[C@@H]2O[C@H](COC(C)=O)[C@@H](OC(C)=O)[C@H](OC(C)=O)[C@H]2OC(C)=O)[C@H](OC(C)=O)[C@H]1OC(C)=O [β-Cellobiose ethyl heptaacetate],52 °C
22,"CCC(=O)OCC1O[C@@H](O[C@H]2OC(COC(=O)CC)[C@@H](OC(=O)CC)[C@H](OC(=O)CC)C2OC(=O)CC)C(OC(=O)CC)C(OC(=O)CC)[C@H]1OC(=O)CC (stereo partly drawn) [Trehalose octapropionate, reference compound]",3 °C
23,"CCCC(=O)OC[C@H]1O[C@H](O[C@H]2O[C@H](COC(=O)CCC)[C@@H](OC(=O)CCC)[C@H](OC(=O)CCC)[C@H]2OC(=O)CCC)[C@H](OC(=O)CCC)[C@@H](OC(=O)CCC)[C@@H]1OC(=O)CCC [Trehalose octabutyrate, reference compound]",syrup
24,"CC(=O)OC[C@H]1O[C@@H](O[C@H]2[C@H](OC(C)=O)[C@@H](OC(C)=O)[C@@H](OC(C)=O)O[C@@H]2COC(C)=O)[C@H](OC(C)=O)[C@@H](OC(C)=O)[C@H]1OC(C)=O [α-Lactose octaacetate, reference compound]",70 °C
25,"CC(=O)OCC1OC(OC2OC(COC(C)=O)C(OC(=O)C(C)C)C(OC(C)=O)C2OC(C)=O)C(OC(C)=O)C(OC(C)=O)C1OC(=O)C(C)C (stereo not drawn) [Trehalose 4,4′-diisobutyrate hexaacetate]",41 °C
26,"CCC(=O)OC[C@H]1O[C@H](O[C@H]2O[C@H](COC(=O)CC)[C@@H](OC(C)=O)[C@H](OC(C)=O)[C@H]2OC(C)=O)[C@H](OC(C)=O)[C@@H](OC(C)=O)[C@@H]1OC(C)=O [Trehalose 6,6′-dipropionate hexaactetate]",43 °C

# Same assay, conditions: derivatized carbohydrate without active, Table 5
row,Molecule,Tg(° C.)
1,Trehalose diisobutyrate hexaacetate,42 °C

# From patent US6352722B1, “Derivatized carbohydrates, compositions comprised thereof and methods of use thereof” (Quadrant Holdings Cambridge Limited, priority 1997, dated 2002)
